The source of these data is ChEMBL document CHEMBL1201862, “PubChem BioAssay data set” (2004).

The source made the active and inactive calls.

The target in assay [1] is Serine/threonine-protein phosphatase (Homo sapiens, UniProt Q9BPW0). As to the kind of experiment: PP5 phosphatase inhibitors, dose response, biochemical, fluorescence (AID 2395).
Assay [2] addresses T1, Sentrin-specific protease 8 (Homo sapiens, UniProt Q96LD8).
T1 sequence (Q96LD8 whole entry): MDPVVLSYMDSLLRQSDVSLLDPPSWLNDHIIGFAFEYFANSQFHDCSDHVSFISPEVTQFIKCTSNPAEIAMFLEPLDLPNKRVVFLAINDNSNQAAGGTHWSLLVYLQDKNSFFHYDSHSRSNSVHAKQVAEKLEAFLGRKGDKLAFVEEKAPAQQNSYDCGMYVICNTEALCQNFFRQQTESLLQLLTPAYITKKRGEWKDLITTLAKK
Nature of the assay: SENP8 protease inhibitors, SAR follow-up, biochemical, luminescence (AID 504501). The format is functional.

For assay [3], the target named is Intestinal-type alkaline phosphatase (Mus musculus, UniProt P24822). As to the kind of experiment: PubChem AID 488785. The format is functional.
Assay [4] deals with T2, Mannose-6-phosphate isomerase (Homo sapiens, UniProt P34949).
T2 sequence (P34949 whole entry): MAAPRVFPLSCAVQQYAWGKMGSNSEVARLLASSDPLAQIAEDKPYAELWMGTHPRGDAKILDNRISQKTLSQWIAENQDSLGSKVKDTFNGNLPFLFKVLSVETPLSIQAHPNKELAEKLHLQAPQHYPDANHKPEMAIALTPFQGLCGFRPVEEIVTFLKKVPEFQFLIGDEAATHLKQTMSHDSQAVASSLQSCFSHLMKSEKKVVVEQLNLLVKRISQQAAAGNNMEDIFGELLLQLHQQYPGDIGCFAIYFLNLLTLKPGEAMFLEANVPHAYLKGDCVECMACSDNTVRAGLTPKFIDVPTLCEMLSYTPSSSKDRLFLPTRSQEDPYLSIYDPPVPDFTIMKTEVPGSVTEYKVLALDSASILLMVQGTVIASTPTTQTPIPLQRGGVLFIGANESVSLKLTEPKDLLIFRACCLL
Nature of the assay: inhibitors of human PMI, primary screen, biochemical, fluorescence intensity, coupled assay (AID 1209).

A short description of assay [5]: HeLa cell cytotoxicity, dose response, cytotoxicity control for MgcRacGAP inhibitor project (AID 624300). The format is functional.
Assay [6] concerns the target T3, Heat shock factor protein 1 (Mus musculus, UniProt P38532).
T3 sequence (P38532 whole entry): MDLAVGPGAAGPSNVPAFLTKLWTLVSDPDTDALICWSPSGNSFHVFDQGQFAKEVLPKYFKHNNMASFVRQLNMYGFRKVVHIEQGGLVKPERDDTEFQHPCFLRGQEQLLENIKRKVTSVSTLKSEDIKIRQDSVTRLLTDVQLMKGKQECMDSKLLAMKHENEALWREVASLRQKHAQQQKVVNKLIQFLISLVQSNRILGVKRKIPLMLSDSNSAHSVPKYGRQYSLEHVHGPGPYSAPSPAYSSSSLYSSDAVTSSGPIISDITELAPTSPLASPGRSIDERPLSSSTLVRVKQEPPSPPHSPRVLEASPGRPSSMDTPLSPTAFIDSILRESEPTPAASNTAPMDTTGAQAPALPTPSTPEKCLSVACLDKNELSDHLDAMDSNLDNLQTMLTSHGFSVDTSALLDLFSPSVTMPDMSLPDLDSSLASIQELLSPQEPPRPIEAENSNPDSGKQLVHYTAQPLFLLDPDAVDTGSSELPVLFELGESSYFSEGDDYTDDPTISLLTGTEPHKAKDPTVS
Nature of the assay: HSF1 potentiators in luciferase reporter cells, confirmation, cell-based, NIH3T3, luminescence, dose retest (AID 435004).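 Further: stress induced by proteasome inhibitor MG132 added 30 min after compound; luciferase reporter driven by HSF1 response element in NIH3T3 cells; actives raise luminescence as potentiators of the MG132 stress response.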 The format is functional. (Reporter assays use an easily measured gene product as a stand-in for the process of interest.)

Assay [7] can be described thus: HCT116 cell viability decrease, GSK3B pretreatment – CellTiter-Glo, IC50, dose response (AID 1117339). The format is functional. To be noted: HCT-116. On the technique in general: Cellular ATP, detected with luciferase, serves as a proxy for viable cell number.
Assay [8] in a line: CellTiter-Glo luminescent dose response of DLD-1 viability loss (AID 1117352). The format is functional.

Sequence of Intestinal-type alkaline phosphatase (P24822 whole entry): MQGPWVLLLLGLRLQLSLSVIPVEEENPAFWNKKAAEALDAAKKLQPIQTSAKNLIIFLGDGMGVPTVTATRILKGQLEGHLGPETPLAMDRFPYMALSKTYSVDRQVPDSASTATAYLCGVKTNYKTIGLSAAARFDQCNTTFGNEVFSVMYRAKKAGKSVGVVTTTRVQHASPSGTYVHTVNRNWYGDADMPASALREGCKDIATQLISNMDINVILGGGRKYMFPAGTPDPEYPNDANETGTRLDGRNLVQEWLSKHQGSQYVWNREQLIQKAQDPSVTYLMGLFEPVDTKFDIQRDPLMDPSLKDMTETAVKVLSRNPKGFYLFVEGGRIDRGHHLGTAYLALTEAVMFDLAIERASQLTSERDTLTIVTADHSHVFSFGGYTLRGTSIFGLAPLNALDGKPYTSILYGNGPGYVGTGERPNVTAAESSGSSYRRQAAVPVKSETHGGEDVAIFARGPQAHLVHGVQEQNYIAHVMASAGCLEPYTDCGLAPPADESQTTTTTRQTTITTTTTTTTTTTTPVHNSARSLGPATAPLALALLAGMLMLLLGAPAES
Sequence of Serine/threonine-protein phosphatase (Q9BPW0 whole entry): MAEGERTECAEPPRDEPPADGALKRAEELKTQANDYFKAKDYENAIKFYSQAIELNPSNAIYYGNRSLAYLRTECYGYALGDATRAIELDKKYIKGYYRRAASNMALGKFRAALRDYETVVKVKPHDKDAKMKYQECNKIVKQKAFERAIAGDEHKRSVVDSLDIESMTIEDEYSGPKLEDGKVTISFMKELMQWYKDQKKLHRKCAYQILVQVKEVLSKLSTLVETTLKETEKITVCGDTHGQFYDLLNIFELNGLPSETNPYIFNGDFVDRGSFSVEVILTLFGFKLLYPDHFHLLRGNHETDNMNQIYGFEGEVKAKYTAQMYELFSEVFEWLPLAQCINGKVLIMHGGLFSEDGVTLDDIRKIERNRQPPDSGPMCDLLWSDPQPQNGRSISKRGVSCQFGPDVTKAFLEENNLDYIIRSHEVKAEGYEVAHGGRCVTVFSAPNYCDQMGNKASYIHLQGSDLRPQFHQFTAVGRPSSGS

A word on the IC50: it is the concentration that gives 50% inhibition. Regarding `CCCOc1cc2c(C#N)c(N3CCCC3)nc(N)c2c(N)n1`, the IC50 in assay [1] was 9.93 µM (active).
Regarding `Oc1ccc(/C=N/Nc2cc(N3CCCC3)nc(N3CCCC3)n2)cc1O`, the values for the IC50 in assay [2], in assay [3] and in assay [4] were > 99 µM (inactive), 1.51 µM (active) and > 50 µM (not active), respectively.
The term CC50 denotes the concentration that lowers cell viability or growth by half. The term EC50 denotes the concentration needed to bring the measured effect to its halfway point. Regarding `Cc1cc2nc3ccc(N(C)C)cc3[s+]c2cc1N` [TOLONIUM CHLORIDE], in assay [5], the CC50 is 25 µM (active). Further, the EC50 in assay [6] is > 260 µM (inactive). The IC50 in assay [7] is 1.69 µM (active); in assay [8], 9.38 µM (inactive).
